We go through 89 molecules from a melting point compilation (Tetko et al.; mined from patent text by program, amines drawn as free bases though some values may be those of a salt).

In the case of `CCOc1ccc(CC2(C)CNCCN2Cc2ccccc2)cc1OCC` (centres undefined), the melting point fell in the range of 94 to 96 °C.

Regarding `O=C1c2ccc(O)cc2CCN1CCN1CCCC1`, the melting point fell in the range of 205 to 207 °C. Consider `CCCC12C=CC=C(N3CCC(c4noc5cc(F)ccc45)CC3)C1(O)C(=O)NC2=O` (centres undefined), for which the melting point fell in the range of 162 to 163 °C. `C[C@H]1CCCC(C)(C)[C@@H]1[C@H](O)c1ccc(C#N)c(F)c1` registered a melting point of 114 to 116 °C. As to `CCCn1c(COCC)nc2c(N)nc3ccc(OCCN)cc3c21`, the melting point is 157 to 159 °C. `C#CCOc1ccc2c(c1)c(-c1ccc(C(C)C)cc1)nc(=O)n2Cc1cccc([N+](=O)[O-])c1`: the melting point lay in the range of 167 to 168 °C. As to `CCn1ncnc1COc1nn2c(-c3ccc(F)cc3F)nncc2c1C(C)(C)C`, the melting point stood at 145 °C. `COC(=O)c1ccc(OCCCCCOc2ccc(C#N)cc2)c(OC)c1`: the melting point lay within 105 to 107 °C.

Take `CC(C)CC(=O)Nc1cccc(-c2ccnc3c(-c4ccc(Oc5ccccc5)cc4)cnn23)c1`: the melting point lay in the range of 175 to 178 °C. Regarding `Cc1ccc(C(=O)O)c(NC(=O)CCCCNC(=O)OC(C)(C)C)c1`, the melting point was found to be 212 °C. For `O=C1Nc2cc(C(F)(F)F)ccc2C1c1ncnc2c1cnn2C1CCCCC1` (centres undefined), the melting point lay within 277 to 280 °C.

As to `OCc1ccc2c(n1)C(CNCCCCCCOCCC#Cc1ccc(F)cc1)OC(c1ccccc1)O2` (centres undefined), the melting point is 83 to 85 °C. In turn, `O=C(Nc1cccc2[nH]ccc12)c1ccccc1OCC(O)CN1CCN(C(c2ccccc2)c2ccccc2)CC1` (centres undefined) displayed a melting point of 170 °C. Molecule `CCOc1cc(Br)cc2c1OC(C)(C)C2` returned a melting point of 55 to 58 °C. `CCOC(=O)Cn1ncc(CC)c1O` yielded a melting point of 77 to 78 °C. The result for `CN1C(=O)CN=C(C2CCCCC2)c2ccccc21` reads 98 to 100 °C.

In turn, `CC(=O)Oc1c(C)c(C)c2c(c1C)CC(C)(C=O)O2` (centres undefined) registered a melting point of 78 to 79 °C. As to `CC(C)[Si](C(C)C)(C(C)C)N1C=C2C=C(Br)OCC3=C2C(=C1)CC3N(C)C` (centres undefined), the melting point lay within 119 to 121 °C. The molecule `Fc1ccc(-c2ncn(C3CCNCC3)c2-c2ccnc(Oc3ccc4c(c3)OCO4)n2)cc1` gave a melting point of 131 to 132 °C. `Cc1cccc(-c2n[nH]cc2-c2ccc(F)c(-c3c[nH]c(CCO)n3)c2)n1` displayed a melting point of 219 to 220 °C. As for `Cc1oc(-c2ccccc2)nc1COc1cccc(C=CC=C2OC(=O)NC2=O)c1`, the melting point was 229 to 230 °C. In the case of `S=C(Nc1ccc(Cl)cn1)N[C@@H]1C[C@@H]1c1ccccc1`, the melting point was in the range of 190 to 191 °C. `CCOC(=O)C1=C(C(C)C)Nc2n[nH]cc2C1c1ccccc1OC` (centres undefined) returned a melting point of 179 to 180 °C. As for `Nc1cccc(OC2CCCCO2)c1O` (centres undefined), the melting point lay within 163 to 166 °C. Turning to `CNC(=O)c1cccc(Cl)c1Nc1nc(Nc2ccc3c(c2)CCC(N2CCC(N4CCN(C)CC4)CC2)CC3)ncc1Cl` (centres undefined), the melting point was in the range of 171 to 175 °C. Regarding `NC(=O)c1ccccc1-c1n[nH]c(-c2ccccc2)n1`, the melting point lay in the range of 222 to 225 °C.

In the case of `Cc1nnc(-c2ccc3occ(-c4ccc(S(=O)Cc5ccccc5C#N)cc4)c3c2)o1` (centres undefined), the melting point was in the range of 171 to 172 °C.

`CCc1[nH]n(C2CCCC2)c2nc(-c3ccccc3-n3ccnc3)nc(=O)c1-2`: the melting point was 192 to 194 °C. The molecule `O=C(Nc1cccc2c1C(=O)N(CC(=O)N1CCN(c3ccncc3)CC1)C2=O)c1ccc(Cl)s1` displayed a melting point of 207 °C. With `CC(C)S(=O)(=O)c1cc(OCCc2ccccn2)c2[nH]nc(Nc3cnccn3)c2c1`, the melting point is 195 to 196 °C. Take `CC(C)(/C=C\F)C(=O)Nc1ccc(Br)cc1`: the melting point lay within 87 to 90 °C. The molecule `Cc1cc(C(=O)O)ccc1Cc1cc2cc(C(F)(F)F)ccc2n1S(=O)(=O)c1cccc(C(C)(C)C)c1` gave a melting point of 135 °C. `N#CCCN(C(N)=O)C1CCCCC1` registered a melting point of 110 to 112 °C. Turning to `Cc1sc(S(=O)(=O)NC(C)(C)CO)cc1NC(=O)c1cnn2c(C(F)F)cc(-c3ccc(C(F)(F)F)cc3)nc12`, the melting point was found to be 180 °C. The same measure for `CCCCC1=NC(NC(=O)C2(NC(=O)CCC(C)C)CCCC2)C(=O)N(Cc2ccccn2)c2ccccc21` (centres undefined): 63 to 67 °C. The molecule `COC(=O)c1ccc(SC#N)c([N+](=O)[O-])c1` had a melting point of 93 to 96 °C. `Cc1cccc(-c2ccc(Cl)nn2)c1` had a melting point of 112 to 113 °C. The same measure for `Cc1cc(C(=O)O)c(Cl)c([N+](=O)[O-])c1C`: 160 to 163 °C.

In turn, `CC(=O)NCC1(C)OCCc2c1[nH]c1ccccc21` (centres undefined) displayed a melting point of 100 to 102 °C. The molecule `CCN(CC)C(=O)n1ccc(S(=O)(=O)c2cccc(Cl)c2C)n1` had a melting point of 76 to 77 °C. Molecule `Oc1ccc(Oc2ccc(Br)cc2F)cc1` gave a melting point of 83.5 to 85 °C. The result for `COc1cc2ncc(C#N)c(Nc3cc(C)c(O)c(C)c3)c2cc1OC` reads 234 to 236 °C; that for `CCOc1ccnc(F)c1NC(=O)OC(C)(C)C`, 130 to 131 °C; that for `CC(C)(C)C(=O)C(C#N)C(=O)c1ccc(S(C)(=O)=O)cc1Cl` (centres undefined), 144 °C. As for `O=c1oc2cc(O)c(O)c([N+](=O)[O-])c2c2c1CCCC2`, the melting point is 238 to 255 °C.

`Nc1nc(N)nc(-c2ccc3c(c2)OC(F)(F)C(F)(F)O3)n1` came in with a melting point of 176 to 179 °C.

For the molecule `CCOC(=O)CCc1c(OCCCCCCc2ccc(OC)cc2)ccc2c(=O)c3cc(C(=O)OC)ccc3oc12`, the melting point was in the range of 108 to 109 °C. `O=C(C(=O)c1cccc(Br)c1)c1ccncc1`: the melting point lay within 88 to 90 °C. The result for `COc1ccc(CN(C(=S)Nc2ccccc2)c2ccc(NNC(C)=O)cc2)cc1` reads 126 to 128 °C. As for `O=C1NCCC[C@@H]1NS(=O)(=O)c1cccc(C(F)(F)F)c1`, the melting point lay in the range of 158 to 160 °C.

Turning to `CCn1c(=O)c(C(=O)O)c(N)c2cccnc21`, the melting point lay within 245 to 248 °C. The same measure for `CCOC(=O)c1cc2c(nc1COc1ccc(C=O)cc1)CCCCC2`: 83 to 84 °C. Turning to `OC1CSC(Oc2cncc(-c3ccc(F)c(Cl)c3)c2)C(O)C1O` (centres undefined), the melting point was 200 to 201 °C.

As for `COc1nc(-n2ncc(C#N)c2N)c(C(F)(F)F)cc1Cl`, the melting point lay in the range of 163 to 165 °C. `COCC1CN(c2ccc(C3CCCCC3)c(O)c2)C(=O)O1` (racemic): the melting point is 207 to 208 °C. In the case of `CSc1nc(O)cc(-c2cccc(C#N)c2)n1`, the melting point was > 220 °C. The molecule `COC(=O)CC(=O)NC(C)(C)CC(C)(C)C` had a melting point of 74 to 75 °C. The same measure for `CC(=O)Nc1c(OC(C)=O)cc(C)cc1[N+](=O)[O-]`: 163 to 165 °C; for `CC(=O)OCC(COCn1cnc2c(=O)[nH]c(N)nc21)OC(C)=O` (centres undefined): 222 to 224 °C. `CC(=O)Oc1ccc(C2(c3ccc(OC(C)=O)cc3)C(c3ccccc3)C2(Cl)Cl)cc1` (centres undefined) showed a melting point of 74 to 75 °C. Molecule `ClC1(c2ccccc2)c2ccccc2-c2ncncc21` (centres undefined) showed a melting point of 119 to 120 °C. `O=C(O)c1cnc(Cn2cc(C3c4ccccc4C=Cc4ccccc43)c(=S)[nH]c2=O)s1` displayed a melting point of 198 to 200 °C. As for `O=[N+]([O-])CCc1[nH]ccc1-c1ccc(I)cc1`, the melting point fell in the range of 88 to 89 °C. `O=C=Nc1cc([N+](=O)[O-])c(Cl)cc1F` had a melting point of 43 to 46 °C. The result for `O=C(O)c1ccccc1Nc1ccc(-c2ccc(Cl)c(Cl)c2)cc1` reads > 220 °C. As to `CC(=O)c1sc2sc(-c3ccncc3)c(C)c2c1C`, the melting point lay in the range of 171 to 173 °C.

In turn, `Nc1[nH]ncc1-c1cccc(N2CCN(CCO)CC2)c1` showed a melting point of 40 to 48 °C. The result for `CC1Nc2ccc(S(=O)(=O)N(C)C)cc2S(=O)(=O)N1` (centres undefined) reads 210 to 212 °C; that for `O=C1COC(CCOC(=O)c2ccccc2)(c2ccc(F)c(F)c2)CN1` (centres undefined), 92 °C. Molecule `Clc1cnc2c(-c3ccccc3)nc(Cl)nc2c1` yielded a melting point of 140 to 141 °C. `COC(=O)c1ccc(C)c(-n2c(C)cc(OCc3ccccc3CNC(=O)Nc3cc(C(C)(C)C)nn3-c3cccc(OCCO)c3)c(Cl)c2=O)c1` displayed a melting point of 147 to 148 °C. Regarding `CC1CS/C(=N/N=C\c2ccc(-c3ncn(-c4ccc(OC(F)(F)F)cc4)n3)cc2)N(c2ccccc2C(C)C)C1` (centres undefined), the melting point is 186 to 190 °C. For the molecule `COc1ccc(CC(=O)NC(NC(=NC#N)Nc2c(F)cc(F)cc2F)C(C)(C)C)cc1OC` (centres undefined), the melting point fell in the range of 170 to 171 °C. As for `Cc1csc2[nH]c(=O)c(=O)[nH]c12`, the melting point was > 320 °C. The molecule `CCOC(=O)Cc1ccc2c(c1)C(O)c1ccccc1O2` (centres undefined) yielded a melting point of 214 to 219 °C. The molecule `CS(=O)(=O)CC(=O)c1ccc(NS(C)(=O)=O)c(Oc2ccc(F)cc2F)c1` had a melting point of 162 to 163 °C. Take `CCOC(=O)C(=O)Nc1ccc(C(N)=O)c(C(N)=O)c1`: the melting point fell in the range of 229 to 230 °C. `Cc1ccccc1C(=O)c1[nH]c2cc(Cl)ccc2c1CC(=O)O` displayed a melting point of 150 to 152 °C. The same measure for `CCOc1ccc(-c2c(S(C)(=O)=O)ccc(C(=O)c3cnn(C(C)(C)C)c3O)c2C)cc1`: 110 °C; for `Cc1nn(-c2cc(I)c(Cl)cc2F)c(=O)n1C(F)F`: 125 to 127 °C. Molecule `COc1ccc2c(c1)-c1n[nH]c(-c3ccncc3)c1CCC2` showed a melting point of 200 to 201 °C.

As to `Oc1ccc(Nc2nc(NCc3ccco3)nc(Nc3ccc(F)c(F)c3)n2)cc1`, the melting point lay in the range of 75 to 77 °C. The same measure for `CCN(CC)C(=O)CC(=O)CC(=O)/C=C/c1c(C2CC2)nc2ccccc2c1-c1ccc(F)cc1`: 97 to 105 °C. `Cc1cc2c(=O)n3cc(C#N)ccc3nc2s1` had a melting point of 256 to 258 °C.

In turn, `Oc1cccc2ccc3cccnc3c12` had a melting point of 104 °C. Take `Cc1cc(C2=NN[C@H](C)Cc3cc4c(cc32)OCO4)ccc1N`: the melting point fell in the range of 193 to 196 °C. `Oc1ccc(O)c2[nH]c(-c3ccc(Cl)cc3)nc12`: the melting point is > 300 °C. Turning to `CCCCc1nc2c(N)nc3cccnc3c2n1CCNC(=O)C(CC(C)C)NC(=O)OC(C)(C)C` (centres undefined), the melting point lay in the range of 184 to 185 °C.

Turning to `Cn1c(CO)nc2cc(Br)cnc21`, the melting point fell in the range of 142 to 144 °C.
